Assay results from publication PMC7504387, “Antimicrobial and Amyloidogenic Activity of Peptides Synthesized on the Basis of the Ribosomal S1 Protein from Thermus Thermophilus” (International Journal of Molecular Sciences, 2020).
Where a SMILES comes first, the peptide text is derived from it.

Tested on: T. thermophilus cells
Assay: Mass spectrometry proteome analysis of peptide-treated T. thermophilus cells
Format: cell-based
Set-up: change in number of ribosomal proteins in comparison with the control: dose or concentration left out as unconfirmed
Details: for Ribosomal Proteins (number detected, 3 or more identified peptides) / All Proteins / total protein detected (number) / detection of ribosomal S1 protein: 24 h; for Ribosomal Proteins (number detected, 3 or more identified peptides): control 51 (with S1), homogenization by freezing-thawing; for All Proteins / total protein detected (number): control 386; for detection of ribosomal S1 protein: control with S1; for Number of proteins, keyword Aminotransferase / Number of proteins, keyword Aromatic amino acid biosynthesis / Number of proteins, keyword DNA replication / Number of proteins, keyword Endonuclease / Number of proteins, keyword Histidine biosynthesis / Number of proteins, keyword Nuclease / Number of proteins, keyword One-carbon metabolism / Number of proteins, keyword Potassium / Number of proteins, keyword Purine salvage / Number of proteins, keyword S-adenosyl-L-methionine / Number of proteins, keyword Serine/threonine-protein kinase / Number of proteins, keyword tRNA processing: 0 μg/ml: 1; for Number of proteins, keyword Isoleucine biosynthesis / Number of proteins, keyword Ribosome biogenesis: 0 μg/ml: 2; for Number of proteins, keyword Aminopeptidase / Number of proteins, keyword Phosphoprotein / Number of proteins, keyword Purine biosynthesis / Number of proteins, keyword Redox-active center: 0 μg/ml: 3; for Number of proteins, keyword Glyoxylate bypass / Number of proteins, keyword Threonine biosynthesis: 0 μg/ml: 4; for Number of proteins, keyword Methionine biosynthesis: 0 μg/ml: 5; for Number of proteins, keyword Allosteric enzyme: 0 μg/ml: 6; for Number of proteins, keyword Serine protease: 0 μg/ml: 7; for Number of proteins, keyword NADP: 0 μg/ml: 8; for Number of proteins, keyword Protease: 0 μg/ml: 16; for Number of proteins, keyword Aminoacyl-tRNA synthetase: 0 μg/ml: 20; for Number of proteins, keyword Magnesium: 0 μg/ml: 23; for Number of proteins, keyword Hydrolase: 0 μg/ml: 26; for Unique proteins (number): control 100
Experimental: T. thermophilus cells were incubated with or without peptides for 24 h. […] The cell extract was not allowed to heat above +10 °C. Cell debris and aggregates were collected by sedimentation using centrifugation in a 221.23 V20 rotor of a Z 36 HK centrifuge (Hermle Labortechnik GmbH, Wehingen, Germany) at 20,000× g 20 min at +4 °C. The supernatant was dried using a vacuum Concentrator 5301 (Eppendorf, Hamburg, Germany). The prepared lysate was dissolved in 100 μL of 9M urea to denature the total protein. Then, 20 μL of cell lysates was separated by electrophoretic in 12% SDS-PAGE. Protein fractions were divided on three equal parts, that every part was chop and treated with trypsin protease. Mass spectrometry analysis of every part was carried out independently. To purify the samples treated with trypsin, filtration was carried out through ZipTips (MilliporeSigma, Burlington, MA, USA). Protein hydrolyzates were concentrated on a pre-column Acclaim PepMap 100 (C18, 3 μm particle size, 100 Å pore size, 300 μm inner diameter × 5 mm length) and separated on an analytical column Acclaim PepMap RSLC (2 μm particle size, 100 Å pore size, 75 μm inner diameter × 150 mm length) (Thermo Scientific, Waltham, MA, USA) using nanoflow liquid chromatograph EASY nLC 1000 (Thermo Scientific, Waltham, MA, USA). A high-performance mass spectrometer an Orbitrap Elite (Thermo Scientific, Dreieich, Germany) was used as a detector. Panoramic spectra were recorded in the mass range m/z 300–2000 at resolution 60,000; ion fragmentation was performed in an HCD cell; the fragmentation spectra were recorded at resolution 15,000. Preliminary selection of identified peptides with a molecular mass (MM) >600 Da was carried out according to the evaluation criteria of the PEAKS Studio 7.5 program (Bioinformatics Solution Inc., Waterloo, ON N2L 6J2, Canada). The peptides with the threshold function value T = −10·logP > 15 were considered significant, where P is the probability that false identification will reach the same or better match score. The T value of >15 corresponds to the p criterion <0.03 [29]. The received fragmentation spectra were analyzed by web-server Identipy. Identification of proteins in the mass spectra of the total protein was carried out using the database of the reference T. thermophilus proteome (Uniprot, No. UP000217909). Proteome data every part was summarized. Subsequent analysis was conducted by using the statistics software R with packages UniProt.ws, tidyverse, ggplot2, splitstackshape, reshape, readr, RVenn, UpSetR (https://rdrr.io/bioc/UniProt.ws/; https://CRAN.R-project.org/package=readr; https://CRAN.R-project.org/package=splitstackshape; https://CRAN.R-project.org/package=readr; https://CRAN.R-project.org/package=RVen).
Annotation of the certain proteins by keywords of the Uniprot database allows us to evaluate the changes in protein composition in 10 categories: biological process, cellular component, variety of coding sequences, molecular function, and others. The number of keywords corresponds to the number of annotated proteins.

CC[C@H](C)[C@H](NC(=O)[C@H](CCC(=O)O)NC(=O)[C@@H](NC(=O)[C@H](Cc1ccccc1)NC(=O)[C@@H](NC(=O)CNC(=O)[C@H](Cc1ccccc1)NC(=O)[C@H](CC(=O)O)NC(=O)[C@@H](NC(=O)[C@@H](NC(=O)CNC(=O)CN(C)C(=O)CNC(=O)CNC(=O)[C@H](CCCNC(=N)N)NC(=O)[C@H](CCCNC(=N)N)NC(=O)[C@H](CCCNC(=N)N)NC(=O)[C@H](CCC(N)=O)NC(=O)[C@H](CCCNC(=N)N)NC(=O)[C@H](CCCNC(=N)N)NC(=O)[C@H](CCCCN)NC(=O)[C@H](CCCCN)NC(=O)[C@@H](N)CCCNC(=N)N)C(C)C)[C@@H](C)O)C(C)C)C(C)C)C(=O)O [R23I] (HELM PEPTIDE1{R.K.K.R.R.Q.R.R.R.G.G.[Sar].G.V.T.D.F.G.V.F.V.E.I}$$$$V2.0; N-terminus and C-terminus assumed)
20: Common proteins for cells in control and treated cells (number) (R23I 20 μg/ml)
395: All Proteins / total protein detected (number) (R23I 100 μg/ml)
5: Number of proteins, keyword Protease (R23I 20 μg/ml) | Number of proteins, keyword Protease (R23I 50 μg/ml) | Number of proteins, keyword Phosphoprotein (R23I 100 μg/ml)
69: Common proteins for cells in control and treated cells (number) (R23I 100 μg/ml)
23: Ribosomal Proteins (number detected, 3 or more identified peptides) (R23I 100 μg/ml)
3: Number of proteins, keyword Purine biosynthesis (R23I 100 μg/ml) | Number of proteins, keyword Redox-active center (R23I 100 μg/ml) | Number of proteins, keyword Methionine biosynthesis (R23I 100 μg/ml) | Number of proteins, keyword Serine protease (R23I 100 μg/ml)
201: All Proteins / total protein detected (number) (R23I 50 μg/ml)
4: Number of proteins, keyword Glyoxylate bypass (R23I 100 μg/ml) | Number of proteins, keyword Allosteric enzyme (R23I 100 μg/ml)
0.52: ratio of proteins from treated cells to proteins from intact cells (R23I 50 μg/mL, 201 to 386 proteins)
48%: less numbers of proteins detected relative to the control (R23I 50 μg/mL)
42: Ribosomal Proteins (number detected, 3 or more identified peptides) (R23I 20 μg/ml)
8: Number of proteins, keyword Hydrolase (R23I 50 μg/ml)
7: Number of proteins, keyword Aminoacyl-tRNA synthetase (R23I 20 μg/ml) | Number of proteins, keyword Aminoacyl-tRNA synthetase (R23I 50 μg/ml)
9: Number of proteins, keyword Magnesium (R23I 20 μg/ml) | Number of proteins, keyword Hydrolase (R23I 20 μg/ml) | Common proteins for cells in control and treated cells (number) (R23I 50 μg/ml) | Number of proteins, keyword Magnesium (R23I 50 μg/ml)
11: Unique proteins (number) (R23I 20 μg/ml) | Number of proteins, keyword Protease (R23I 100 μg/ml)
232: All Proteins / total protein detected (number) (R23I 20 μg/ml)
23 (with S1): detection of ribosomal S1 protein (R23I 100 μg/ml)
176: Unique proteins (number) (R23I 100 μg/ml)
6: Number of proteins, keyword NADP (R23I 100 μg/ml)
42 (without S1): detection of ribosomal S1 protein (R23I 20 μg/ml)
19: Number of proteins, keyword Aminoacyl-tRNA synthetase (R23I 100 μg/ml)
39 (without S1): detection of ribosomal S1 protein (R23I 50 μg/ml)
31: Number of proteins, keyword Hydrolase (R23I 100 μg/ml)
more than two-fold decrease: change in number of ribosomal proteins in comparison with the control (R23I)
1: Number of proteins, keyword Phosphoprotein (R23I 20 μg/ml) | Number of proteins, keyword Purine biosynthesis (R23I 20 μg/ml) | Number of proteins, keyword Glyoxylate bypass (R23I 20 μg/ml) | Number of proteins, keyword Threonine biosynthesis (R23I 20 μg/ml) | Number of proteins, keyword Methionine biosynthesis (R23I 20 μg/ml) | Number of proteins, keyword Allosteric enzyme (R23I 20 μg/ml) | Number of proteins, keyword Serine protease (R23I 20 μg/ml) | Number of proteins, keyword tRNA processing (R23I 50 μg/ml) | Number of proteins, keyword Purine biosynthesis (R23I 50 μg/ml) | Number of proteins, keyword Glyoxylate bypass (R23I 50 μg/ml) | Number of proteins, keyword Threonine biosynthesis (R23I 50 μg/ml) | Number of proteins, keyword Methionine biosynthesis (R23I 50 μg/ml) | Number of proteins, keyword Allosteric enzyme (R23I 50 μg/ml) | Number of proteins, keyword Aminotransferase (R23I 100 μg/ml) | Number of proteins, keyword Aromatic amino acid biosynthesis (R23I 100 μg/ml) | Number of proteins, keyword Histidine biosynthesis (R23I 100 μg/ml) | Number of proteins, keyword One-carbon metabolism (R23I 100 μg/ml) | Number of proteins, keyword Potassium (R23I 100 μg/ml) | Number of proteins, keyword S-adenosyl-L-methionine (R23I 100 μg/ml) | Number of proteins, keyword tRNA processing (R23I 100 μg/ml) | Number of proteins, keyword Isoleucine biosynthesis (R23I 100 μg/ml)
2: Number of proteins, keyword NADP (R23I 20 μg/ml) | Number of proteins, keyword Phosphoprotein (R23I 50 μg/ml) | Number of proteins, keyword Serine protease (R23I 50 μg/ml) | Number of proteins, keyword NADP (R23I 50 μg/ml) | Unique proteins (number) (R23I 50 μg/ml) | Number of proteins, keyword DNA replication (R23I 100 μg/ml) | Number of proteins, keyword Endonuclease (R23I 100 μg/ml) | Number of proteins, keyword Nuclease (R23I 100 μg/ml) | Number of proteins, keyword Threonine biosynthesis (R23I 100 μg/ml)
33: Number of proteins, keyword Magnesium (R23I 100 μg/ml)
0: Number of proteins, keyword Aminotransferase (R23I 20 μg/ml) | Number of proteins, keyword Aromatic amino acid biosynthesis (R23I 20 μg/ml) | Number of proteins, keyword DNA replication (R23I 20 μg/ml) | Number of proteins, keyword Endonuclease (R23I 20 μg/ml) | Number of proteins, keyword Histidine biosynthesis (R23I 20 μg/ml) | Number of proteins, keyword Nuclease (R23I 20 μg/ml) | Number of proteins, keyword One-carbon metabolism (R23I 20 μg/ml) | Number of proteins, keyword Potassium (R23I 20 μg/ml) | Number of proteins, keyword Purine salvage (R23I 20 μg/ml) | Number of proteins, keyword S-adenosyl-L-methionine (R23I 20 μg/ml) | Number of proteins, keyword Serine/threonine-protein kinase (R23I 20 μg/ml) | Number of proteins, keyword tRNA processing (R23I 20 μg/ml) | Number of proteins, keyword Isoleucine biosynthesis (R23I 20 μg/ml) | Number of proteins, keyword Ribosome biogenesis (R23I 20 μg/ml) | Number of proteins, keyword Aminopeptidase (R23I 20 μg/ml) | Number of proteins, keyword Redox-active center (R23I 20 μg/ml) | Number of proteins, keyword Aminotransferase (R23I 50 μg/ml) | Number of proteins, keyword Aromatic amino acid biosynthesis (R23I 50 μg/ml) | Number of proteins, keyword DNA replication (R23I 50 μg/ml) | Number of proteins, keyword Endonuclease (R23I 50 μg/ml) | Number of proteins, keyword Histidine biosynthesis (R23I 50 μg/ml) | Number of proteins, keyword Nuclease (R23I 50 μg/ml) | Number of proteins, keyword One-carbon metabolism (R23I 50 μg/ml) | Number of proteins, keyword Potassium (R23I 50 μg/ml) | Number of proteins, keyword Purine salvage (R23I 50 μg/ml) | Number of proteins, keyword S-adenosyl-L-methionine (R23I 50 μg/ml) | Number of proteins, keyword Serine/threonine-protein kinase (R23I 50 μg/ml) | Number of proteins, keyword Isoleucine biosynthesis (R23I 50 μg/ml) | Number of proteins, keyword Ribosome biogenesis (R23I 50 μg/ml) | Number of proteins, keyword Aminopeptidase (R23I 50 μg/ml) | Number of proteins, keyword Redox-active center (R23I 50 μg/ml) | Number of proteins, keyword Purine salvage (R23I 100 μg/ml) | Number of proteins, keyword Serine/threonine-protein kinase (R23I 100 μg/ml) | Number of proteins, keyword Ribosome biogenesis (R23I 100 μg/ml) | Number of proteins, keyword Aminopeptidase (R23I 100 μg/ml)
39: Ribosomal Proteins (number detected, 3 or more identified peptides) (R23I 50 μg/ml)
40%: less numbers of proteins detected relative to the control (R23I 20 μg/mL)
